Experimental data published in patent publication US7179819B2, “VLA-4 inhibitor compounds” (Daiichi Pharmaceutical Co., Ltd., priority 1999, dated 2007).

Compound | melting point [°C]
COc1cc(CC(=O)N2C[C@H](OC)C[C@H]2COc2ccc(C(=O)O)cc2)ccc1NC(=O)Nc1ccccc1Br [Compound 138, 4-[1-[4-[N′-(2-bromophenyl)ureido]-3-methoxyphenylacetyl]-(4R)-methoxy-(2S)-pyrrolidinylmethoxy]benzoic acid] | 125 to 130
CN[C@@H]1C[C@@H](COc2ccc(C(=O)O)cc2)N(C(=O)Cc2ccc(NC(=O)Nc3ccccc3C)c(OC)c2)C1 [Compound 153, 4-[trans-1-[3-methoxy-4-[N′-(2-methylphenyl)ureido]phenylacetyl]4-methylamino-(2S)-pyrrolidinyl]methoxybenzoic acid] | 162 to 164
COc1cc(CC(=O)N2C[C@@H](NS(=O)(=O)c3ccc4ccccc4c3)C[C@H]2COc2ccc(C(=O)O)cc2)ccc1NC(=O)Nc1ccccc1Cl [Compound 161, 4-[cis-1-[4-[N′-(2-chlorophenyl)ureido]-3-methoxylphenylacetyl]-4-(2-naphthalenesulfonamido)-(2S)-pyrrolidinyl]methoxybenzoic acid] | 135 to 142
COc1cc(CC(=O)N2C[C@@H](NS(=O)(=O)c3c(C)cc(C)cc3C)C[C@H]2COc2ccc(C(=O)O)cc2)ccc1NC(=O)Nc1ccccc1Br [Compound 162] | 130 to 132
COc1cc(CC(=O)N2C[C@@H](NS(C)(=O)=O)C[C@H]2COc2ccc(C(=O)O)cc2)ccc1NC(=O)Nc1ccccc1Br [Compound 164, 4-[4-methanesulfonamido-1-[4-[N′-(2-bromophenyl)ureido]-3-methoxyphenylacetyl]-(2S)-pyrrolidinyl]methoxybenzoic acid] | 125 to 128
COc1cc(CC(=O)N2C3CCCCC3C[C@H]2COc2ccc(C(=O)O)cc2)ccc1NC(=O)Nc1ccccc1C (stereo partly drawn) [Compound 165, 4-[1-[3-methoxy-4-[N′-(2-methylphenyl)ureido]phenylacetyl]-(2S)-octahydroindolylmethoxy]benzoic acid] | 130 to 134
COc1cc(CC(=O)N2C3CCCCC3C[C@H]2COc2ccc(C(=O)O)cc2)ccc1NC(=O)Nc1ccccc1Br (stereo partly drawn) [Compound 167, 4-[1-[4-[N′-(2-bromophenyl)ureido]-3-methoxyphenylacetyl]-(2S)-octahydroindolylmethoxy]benzoic acid] | 118 to 123
COc1cc(CC(=O)N2CCC[C@H]2COC2CCC(C(=O)O)CC2)ccc1NC(=O)Nc1ccccc1C (stereo partly drawn) [Compound 174, 4-[[1-[3-methoxy-4-[N′(2-methylphenyl)ureido]phenylacetyl]-(2S)-pyrrolidinyl]methoxy]cyclohexanecarboxylic acid] | 110 to 113
COc1cc(CC(=O)N2CCC[C@H]2COC2CCC(C(=O)O)CC2)ccc1NC(=O)Nc1ccccc1Cl (stereo partly drawn) [Compound 175, 4-[[1-[4-[N′-(2-chlorophenyl)ureido]-3-methoxylphenylacetyl]-(2S)-pyrrolidinyl]methoxy]cyclohexanecarboxylic acid] | 111 to 115
COc1cc(CC(=O)N2CCC[C@H]2COC2CCC(C(=O)O)CC2)ccc1NC(=O)Nc1ccccc1Br (stereo partly drawn) [Compound 176, 4-[1-[4-[N′-(2-bromophenyl)ureido]-3-methoxylphenylacetyl]-(2S)-pyrrolidinyl]methoxy cyclohexanecarboxilic acid] | 108 to 111
Cc1ccccc1NC(=O)Nc1ccc(CC(=O)N2CCC[C@H]2COC2CCC(C(=O)O)CC2)cc1 (stereo partly drawn) [Compound 177, 4-[[1-[4-[N′-(2-methylphenyl)ureido]phenylacetyl]-(2S)-pyrrolidinyl]methoxy]cyclohexane carboxylic acid] | 107 to 111
COc1cc(CC(=O)N2C3CCCCC3C[C@H]2COC2CCC(C(=O)O)CC2)ccc1NC(=O)Nc1ccccc1Cl (stereo partly drawn) [Compound 178, cis-4-[1-[4-[N′-(2-chlorophenyl)ureido]-3-methoxylphenylacetyl]-(2S)-octahydroindolylmethoxy]cyclohexanecarboxylic acid] | 120 to 121
COc1cc(CC(=O)N2CC[C@H](Oc3ccc(C(=O)O)cc3)C2)ccc1NC(=O)Nc1ccccc1C [Compound 182, 4-[1-[3-methoxy-4-[N′-(2-methylphenyl)ureido]phenylacetyl]-(3S)-pyrrolidinyloxy]benzoic acid] | 131 to 135
COc1cc(CC(=O)N2CC[C@H](Oc3ccc(C(=O)O)cc3)C2)ccc1NC(=O)Nc1ccccc1Cl [Compound 183, 4-[1-[4-[N′-(2-chlorophenyl)ureido]-3-methoxyphenylacetyl]-(3S)-pyrrolidinyloxy]benzoic acid] | 190 to 193
COc1cc(CC(=O)N2CC[C@H](Oc3ccc(C(=O)O)cc3)C2)ccc1NC(=O)Nc1ccccc1Br [Compound 184, 4-[1-[4-[N′-(2-bromophenyl)ureido]-3-methoxyphenylacetyl]-(3S)-pyrrolidinyloxy]benzoic acid] | 173 to 175
COc1cc(CC(=O)N2CC[C@@H](Oc3ccc(C(=O)O)cc3)C2)ccc1NC(=O)Nc1ccccc1C [Compound 185, 4-[1-[3-methoxy-4-[N′-(2-methylphenyl)ureido]phenylacetyl]-(3R)-pyrrolidinyloxy]benzoic acid] | 158 to 162
COc1cc(CC(=O)N2CC[C@@H](Oc3ccc(C(=O)O)cc3)C2)ccc1NC(=O)Nc1ccccc1Cl [Compound 186, 4-[1-[4-[N′-(2-chlorophenyl)ureido]-3-methoxyphenylacetyl]-(3R)-pyrrolidinyloxy]benzoic acid] | 193 to 194
COc1cc(CC(=O)N2CC[C@@H](Oc3ccc(C(=O)O)cc3)C2)ccc1NC(=O)Nc1ccccc1Br [Compound 187, 4-[1-[4-[N′-(2-bromophenyl)ureido]-3-methoxyphenylacetyl]-(3R)-pyrrolidinyloxy]benzoic acid] | 175 to 177
COc1cc(CC(=O)NCCOc2ccc(C(=O)O)cc2OC)ccc1NC(=O)Nc1ccccc1C [Compound 255, 3-methoxy-4-[2-[3-methoxy-4-[N′-(2-methylphenyl)ureido]phenylacetyl]aminoethoxy]benzoic acid] | 180 to 181
COc1cc(CC(=O)NCCOc2ccc(C(=O)O)cc2[N+](=O)[O-])ccc1NC(=O)Nc1ccccc1C [Compound 257, 3-nitro-4-[2-[3-methoxy-4-[N′-(2-methylphenyl)ureido]phenylacetyl]aminoethoxy]benzoic acid] | 112 to 115
COc1cc(CC(=O)N2CCN(c3ccc(C(=O)O)cc3)CC2)ccc1NC(=O)Nc1ccccc1C [Compound 259] | 240 to 245
COc1cc(CC(=O)N[C@H](C)COc2ccc(C(=O)O)cc2OC)ccc1NC(=O)Nc1ccccc1C [Compound 260, (R)-3-methoxy-4-[2-[3-methoxy-4-[N′-(2-methylphenyl)ureido]phenylacetylamino]-1-propoxy]benzoic acid] | 168 to 169
COc1cc(CC(=O)N(CCOc2ccc(C(=O)O)cc2OC)CCN2CCN(C)CC2)ccc1NC(=O)Nc1ccccc1C [Compound 263] | 155 to 160
COc1cc(CC(=O)N[C@@H](C)COc2ccc(C(=O)O)cc2)ccc1NC(=O)Nc1ccccc1C [Compound 272, (S)-4-[2-[3-methoxy-4-[N′-(2-methylphenyl)ureido]phenylacetylamino]-1-propoxy]benzoic acid] | 198 to 201
